Results as given in article PMC2228077, “The bioavailability of oral GI147211 (GG211), a new topoisomerase I inhibitor” (British Journal of Cancer, 1997).
Values joined by “and” are separate entries in the source; they are usually repeats but may differ in a detail not shown here. Equal entries are not always repeated. Structures can show the parent of a compound that is named as a salt.

Columns and labels:
[1] = Plasma pharmacokinetics and absolute bioavailability, oral day 1 vs 30-min i.v. infusion day 2, patients with solid tumours; design: mean maximal plasma concentration (Cmax) after intravenous dosing: dose or concentration left out as unconfirmed
Description: British Journal of Cancer (1997) 76(7), 946-951 ? 1997 Cancer Research Campaign The bloavailability of oral Gil 47211 (GG21 1), a new topoisomerase I inhibitor CJH Gerrits', JHM Schellens', GJ Creemers', P Wissel2, ASTh Planting', JF Pritchard2, S DePee2, M de Boer-Dennert', M Harteveld' and J Verweij' 'Department of Medical Oncology, Rotterdam Cancer Institute (Daniel den Hoed Kliniek) and University Hospital, The Netherlands; 2Glaxo Wellcome, Department of Pharmacokinetics, NC, USA Summary Topoisomerase I inhibitors are new compounds of interest for cancer chemotherapy. We performed a study with Gl147211, a new semisynthetic camptothecin analogue, to determine the absolute bioavailability of the drug given orally. […] Gi147211 was given orally on day 1 and as a 30-min infusion daily on days 2-5. The treatment course was repeated every 3 weeks. In subsequent patient cohorts, the dose of the oral formulation was escalated from 1.5 mg m-2 to 6.0 mg m-2; the dose for i.v. administration was fixed at 1.2 mg m-2. Plasma pharmacokinetics was performed on day 1 and 2 of the first course and on day 1 of the second course using a validated high-performance liquid chromatographic assay. […] Keywords: G1147211 (GG211); bioavailability; topoisomerase I inhibitor; phase I study G1147211 [7-(methylpiperazinomethylene)-10,11-ethylenedioxy- 20(S)-camptothecin dihydrochloride] is a water-soluble semisyn- thetic analogue of camptothecin (CPT). […] Its further development was stopped because of unpredictable and severe myelosuppression, gastro- intestinal toxicity and haemorrhagic cystitis (Gottlieb et al, 1970; Creaven et al, 1972; Muggia et al, 1972). Interest in CPT was renewed in the 1980s, because topoiso- merase I was identified as the single cellular target of CPT (Hsiang et al, 1988 1989), and an overexpression of topoisomerase I was found in various tumour cell lines but not in normal tissues (Giovanella et al, 1989; Hirabayashi et al, 1992). Topoisomerase I is a nuclear enzyme that resolves topological problems of the torsionally strained (supercoiled) DNA by forming a covalent adduct between topoisomerase I and the DNA, termed the cleav- able complex. This catalytic intermediate creates single-strand DNA breaks, allowing the DNA molecule to rotate around the intact DNA strand at the cleavage site, leading to a relaxation of Received 29 November 1996 Revised 27 March 1997 Accepted 1 April 1997 Correspondence to: CJH Gerrits, Department of Medical Oncology, Rotterdam Cancer Institute, (Daniel den Hoed Kliniek) and University Hospital, Groene Hilledijk 301, 3075 EA Rotterdam, The Netherlands the DNA molecule, and in this way replication, transcription and other DNA functions can proceed. These enzyme-bridged breaks are then resealed by topoisomerase I (Champoux, 1976; Muller, 1985; Muller et al, 1985; Camilloni et al, 1989). […] It has been documented that camptothecin (CPT) interferes with the breakage-reunion process of topoiso- merase I by stabilizing the enzyme-DNA cleavable complexes (Liu et al, 1989).

[2] = tested on: xenografts of human cancers, including HT-29 and SW-48 colon, PC-3 prostate, MX-1 breast, H460 lung, SKOV3 ovarian and KB epidermoid carcinomas; design: method as in Emerson et al, 1993, 1995; conditions: ref Emerson et al, 1993, 1995; cited from earlier work
[3] = individual patients 1-19, i.v. 1.2 mg m-2, Table 3
[4] = individual patients, oral 6 mg m-2, Fed (after breakfast), Tables 3 and 4
[5] = individual patients, oral 6 mg m-2, fasted, Table 3
[6] = oral 6.0 mg m-2, lactone, Table 4

CC[C@@]1(O)C(=O)OCc2c1cc1n(c2=O)Cc2c-1nc1cc3c(cc1c2CN1CCN(C)CC1)OCCO3 [GI147211, 7-(methylpiperazinomethylene)-10,11-ethylenedioxy-20(S)-camptothecin dihydrochloride]
Oral AUC total, mean ([1]; all oral doses 1.5-6 mg m-2, total = lactone plus acid, Table 3): 36.33 ng·h/mL | intrapatient variability of the absolute bioavailability, median ([1]; course 1 vs course 2): 31% | intrapatient variability of the absolute bioavailability, range ([1]; course 1 vs course 2): 3-88% | absolute bioavailability, range between patients ([1]; human, in vivo): 4.8-24.3% | mean maximal plasma concentration (Cmax) after intravenous dosing ([1]; human, in vivo): 21.76 ng/mL | i.v. AUC, mean ([1]; human, in vivo, iv, 1.2 mg): 31.84 ng·h/mL | cases with Tmax < 0.5 h ([1]; human, in vivo, po): 13 of 19 | dose dependence of oral bioavailability ([1]; human, in vivo, po): not dose dependent | median Tmax ([1]; human, in vivo, po): 0.5 h | terminal half-life after oral administration (lactone), range ([1]; human, in vivo, po): 2.0 to 13.0 h | Oral Tmax ([1]; human, in vivo, po, 1.5 mg): 0.25 h | Absolute bioavailability fasted, mean ([1]; human, in vivo, po, 6 mg): 11.4% | Absolute bioavailability fed, mean ([1]; human, in vivo, po, 6 mg): 11.2% | Oral Tmax fasted, mean ([1]; human, in vivo, po, 6 mg): 0.65 h | Oral Tmax fed, mean ([1]; human, in vivo, po, 6 mg): 0.69 h | influence of fasting or fed state on bioavailability ([1]; human, in vivo, po, 6 mg): no significant influence | influence of fed or fasted state on Tmax ([1]; human, in vivo, po, 6 mg): not significantly influenced | mean maximal plasma concentration (Cmax) after oral dosing ([1]; human, in vivo, po, 6 mg): 4.02 ? 3.57 ng ml-1 | i.v. t1/2, mean ([1]; i.v. 1.2 mg m-2, 13 patients of 6.0 mg m-2 level, Table 4): 8.53 h | Oral AUC total ([1]; individual patient 18, oral 6 mg m-2, Fed, lactone plus acid, Table 3): 14.69 ng·h/mL | i.v. AUC [1, 3]: 19.11 ng·h/mL | i.v. t1/2 [1, 3]: 6.2 h (2×) and 6.0 h and 14.3 h and 5.6 h and 6.7 h and 7.0 h and 5.2 h and 9.5 h and 10.9 h and 10.5 h and 8.9 h and 6.8 h and 4.5 h and 18.6 h and 14.6 h and 7.2 h and 1.9 h and 4.9 h | Oral t1/2 ([1]; individual patients, oral 1.5 mg m-2, Table 3): 2.5 h and 4.0 h | Oral AUC total ([1]; individual patients, oral 1.5 mg m-2, lactone plus acid, Table 3): 3.12 ng·h/mL and 11.16 ng·h/mL | Oral t1/2 ([1]; individual patients, oral 3 mg m-2, Table 3): 12.2 h and 7.7 h and 9.5 h and 5.1 h | Oral AUC total ([1]; individual patients, oral 3 mg m-2, lactone plus acid, Table 3): 70.82 ng·h/mL and 12.81 ng·h/mL and 15.21 ng·h/mL and 24.05 ng·h/mL | Oral t1/2 ([1]; individual patients, oral 3 mg m-2, second course (C2), Table 3): 2.0 h and 11.7 h | Absolute bioavailability Lactone [1, 4]: 10.5% and 11.9% | Oral t1/2 [1, 4]: 8.7 h and 6.0 h (2×) and 8.2 h and 11.1 h and 11.9 h and 4.1 h and 3.4 h and 3.5 h | Absolute bioavailability Lactone [1, 5]: 11.1% | Absolute bioavailability Total [1, 5]: 11.1% | Oral t1/2 [1, 5]: 4.2 h and 4.5 h and 4.3 h (2×) and 6.1 h and 10.4 h and 9.7 h and 7.8 h and 6.2 h and 13.0 h and 6.7 h and 5.0 h and 3.7 h | Oral AUC total ([1]; individual patients, oral 6 mg m-2, fasted, lactone plus acid, Table 3): 157.68 ng·h/mL and 30.60 ng·h/mL and 36.73 ng·h/mL and 39.35 ng·h/mL and 55.59 ng·h/mL and 27.76 ng·h/mL and 13.89 ng·h/mL and 28.78 ng·h/mL and 30.71 ng·h/mL and 40.52 ng·h/mL and 40.50 ng·h/mL | Oral t1/2 ([1]; individual patients, oral 6 mg m-2, second course (C2), Table 3): 7.8 h and 7.2 h | courses in which plasma concentrations could be measured at 24 h ([1]; oral): 21 % of courses | courses in which plasma concentration-time curves could be measured up to 12 h ([1]; oral 6.0 mg m-2, lactone and total): 68 % of courses | Oral t1/2 fasted, mean [1, 6]: 6.61 h | Oral t1/2 fed, mean [1, 6]: 6.84 h | activity against xenografts of human cancers [2]: significant cytotoxicity
